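Grown in 96-well plates, cells were treated for 48 hours with each compound at five concentrations. Insufficient inhibition: endpoint recorded as highest concentration tested. TGI: total growth inhibition.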
How the values were obtained:
Test in all cases: inhibition of tumour cell growth, NCI panel, 48 h
SF-539 CNS = system: SF-539 CNS
COLO 205 colon = system: COLO 205 colon
UO-31 renal = system: UO-31 renal
OVCAR-8 ovarian = system: OVCAR-8 ovarian
UACC-62 melanoma = system: UACC-62 melanoma
MDA-MB-435 = system: MDA-MB-435
SNB-75 CNS = system: SNB-75 CNS
KM12 colon = system: KM12 colon
SR leukemia = system: SR leukemia
MDA-N = system: MDA-N

SMILES | TGI (SF-539 CNS) | TGI (COLO 205 colon) | TGI (UO-31 renal) | TGI (OVCAR-8 ovarian) | TGI (UACC-62 melanoma) | TGI (MDA-MB-435) | TGI (SNB-75 CNS) | TGI (KM12 colon) | TGI (SR leukemia) | TGI (MDA-N)
COC(=O)C(Cc1ccccc1)NC(=O)CNC(=O)CSc1nnc(COc2ccc(Cl)cc2)n1-c1ccccc1 (stereo unspecified) | 34.3 µM | 31.9 µM | 3.28 µM | 27.4 µM | 28.6 µM | 35 µM | 37.1 µM | 35.2 µM | > 20.4 µM | –
COc1cccc(-c2cc(=O)c3cc(C)cnc3[nH]2)c1 | > 100 µM | 1.39 µM | 3.59 µM | – | > 100 µM | 0.0686 µM | – | – | 95.7 µM | 0.0213 µM
O=C(CCCC(=O)N1CC(CCl)c2ccc([N+](=O)[O-])cc21)N1CC(CCl)c2ccc([N+](=O)[O-])cc21 (stereo unspecified) | > 100 µM | > 100 µM | > 100 µM | – | > 100 µM | > 100 µM | – | – | 60.5 µM | > 100 µM
CN(C)c1ccc(/C=N/NC2=N/C(=C\c3ccco3)C(=O)N2)cc1 | > 100 µM | > 100 µM | > 100 µM | > 100 µM | > 100 µM | > 100 µM | > 100 µM | > 100 µM | – | > 100 µM
Clc1ccc(-c2nc(-c3ccc(Cl)cc3)[s+]s2)cc1 | > 100 µM | > 100 µM | > 100 µM | > 100 µM | > 100 µM | > 100 µM | – | > 100 µM | 94.2 µM | > 100 µM
c1ccc2c(c1)SC1Sc3ccccc3[S+]21 (stereo unspecified) | 54.9 µM | 30.1 µM | 50.9 µM | > 78.3 µM | 37.4 µM | 60.9 µM | > 100 µM | 31.1 µM | – | 53.6 µM
CN(C)c1ccc(/C=C2\N=C(c3ccccc3)N(c3nc4c(Cl)cc(Cl)cc4s3)C2=O)cc1 | > 100 µM | > 100 µM | > 100 µM | > 100 µM | > 100 µM | 67.6 µM | – | > 100 µM | > 100 µM | 56.8 µM
Nc1cc(CO)cc(Nc2c3ccccc3nc3occc23)c1 | 69.6 µM | 85.7 µM | > 100 µM | > 100 µM | 86.8 µM | 41.9 µM | – | > 100 µM | 27.3 µM | > 100 µM
CCCCCC(C)C[C@H]1CO[C@H](c2ccc[nH]2)N[C@H]1C(=O)OC (stereo partly specified) | > 100 µM | > 100 µM | – | > 100 µM | > 100 µM | > 100 µM | – | > 100 µM | – | > 100 µM
CC[C@H]1C=CCC[C@@]2(C[C@@H]3CC[C@@H]4[C@H](C(=O)OCCCCCCCCCCCCCCCC(=O)N(CCCN)C[C@@H](O)CCN)[C@]5(CCC[C@@H](C)O5)NC(=[N+]34)N2)O1 | 2.37 µM | 1.65 µM | 1.64 µM | 7.13 µM | 0.239 µM | 0.469 µM | – | 1.58 µM | 0.397 µM | 1.14 µM
O=C1/C(=C/c2cccs2)N=C(c2ccccc2)N1C1Nc2cc3c(cc2S1)NC(N1C(=O)/C(=C/c2cccs2)N=C1c1ccccc1)S3 (stereo unspecified) | 31.3 µM | – | > 100 µM | 47.2 µM | – | 42.6 µM | 83.2 µM | > 100 µM | 31 µM | 41 µM
N#CC(c1ccccc1)c1cccc2ccccc12 (stereo unspecified) | > 100 µM | > 100 µM | > 100 µM | 76.4 µM | > 100 µM | 44.1 µM | > 100 µM | 66 µM | 39.4 µM | –

From PubChem BioAssay (NCI)
